According to patent US5230998A, “Method for the prescreening of drugs targeted to the V3 hypervariable loop of the HIV-1 envelope glycoprotein gp 120” (priority 1991, dated 1993):
Entries after “also recorded” stand apart in the source; their conditions may differ.

Columns and labels:
HIV-1 [1] = details: literature; listed as ATA; cited from earlier work
[2] = tested on: gp120 expressed on the surface of HIV-1-infected cells; details: literature; cited from earlier work
[3] = molecular target: T1, control peptide (518-542) (Human immunodeficiency virus type 1 BH10, UniProt P03375); test: Attachment of ATA determined by anti-ATA antibodies (double antibody RIA); assay type: binding, HIV-1; details: FIG. 2
T1 construct: cut from Env gp160
Description: (§1) Antibodies to ATA were detected by double antibody RIA using wells coated with an ATA-ovalbumin conjugate. This conjugate was prepared in the same way as described for the ATA-BSA conjugate. Dilution endpoints of anti-ATA antibodies, determined as described by Ritchie, D. G., Nickerson, J. M., and Fuller, G. M. (1983), "Two Simple Programs for the Analysis of Data from Enzyme-linked Immunosorbent Assays (ELISA) on a Programmable Desk-top Calculator," Methods in Enzymology, 92, 577-588) of the two antisera were: 1:2,700 and 1:150,000, respectively. The second antiserum was used for subsequent RIA tests.
(§2) ATA was also added to a control peptide, (518-542), and to wells coated with gelatin only. After incubation for 4 hours at 20° C., excess ATA was removed, the wells were washed with TS and attached ATA was determined by double-antibody RIA using serial dilutions of the anti-ATA antiserum. Similar tests were carried out with serum from the same rabbit before immunization with the ATA-BSA conjugate; the corresponding results (100-450 cpm) were subtracted from cpm corresponding to RIA results obtained with the anti-ATA antiserum. For additional assays aimed at determining the binding of ATA to synthetic peptides from gp120 and gp41 of HIV-1 BH 10 and to V3 hypervariable loop peptides from 20 additional HIV-1 isolates, anti-ATA antiserum was used at a final dilution of 1:800.

BH 10 peptide = molecular target: T2, BH 10 peptide (Human immunodeficiency virus type 1 BH10, UniProt P03375); test: Attachment of ATA to V3 hypervariable loop peptides of distinct HIV-1 isolates (FIG. 4B); assay type: binding, HIV-1 BH 10
T2 construct: cut from Env gp160
Description: (§3) FIG. 4 comprises bar graphs depicting the interaction of aurintricarboxylic acid (ATA) with full length V3 hypervariable loop peptides from gp120 of distinct HIV-1 isolates (clones). FIG. 4A: Inhibitory effects of ATA (50 μg/ml) on the reaction between peptide-coated wells and homologous anti-peptide antisera (diluted 1:1,000). FIG. 4B: attachment of ATA to distinct V3 hypervariable loop peptide-coated wells as determined by double antibody RIA using rabbit antiserum against ATA.
as §2

gp120 = molecular target: T3, gp120 (Human immunodeficiency virus type 1 BH10, UniProt P03375); test: Attachment of ATA determined by anti-ATA antibodies (double antibody RIA); assay type: binding, HIV-1 BH 10; details: FIG. 2; listed as ATA
T3 construct: cut from Env gp160
Description: as §1, §2

[4] = molecular target: T4, V3 hypervariable loop peptide (303-338) (Human immunodeficiency virus type 1 BH10, UniProt P03375); test: as above; assay type: binding, HIV-1 BH 10; details: FIG. 1C, FIG. 2
T4 construct: cut from Env gp160
Description: as §1, §2

peptide (492-518) = peptide (492-518) (Human immunodeficiency virus type 1 BH10, UniProt P03375); test: as above; assay type: binding, HIV-1 BH 10; details: FIG. 1C
Description: as §1, §2

HIV-1 [5] = test: HIV-1 infection marker: viral DNA in ATA-treated cultures; assay type: cell-based
Excerpt: The combined effects of AZT and ATA, and other compounds shown to be effective in Table 1, hereinbelow, against HIV-1 are also contemplated by the present invention, since synergistic drug combinations would offer means for alleviating toxicity due to AZT, observed in clinical settings. Contemplated combinations include, for example, AZT+ATA, AZT+chlorin e6; AZT+deuteroporphyrin IX, 2,4(4,2) hydroxyethyvinyl; and AZT+meso-tetra(4-carboxyphenyl)porphine.

[6] = molecular target: T5, HIV-1 SC V3 hypervariable loop peptide (Human immunodeficiency virus type 1 (SC ISOLATE), UniProt P05878); test: Reactivity/attachment of ATA with V3 hypervariable loop peptides of distinct HIV-1 isolates (FIG. 4); assay type: binding
T5 construct: cut from Env gp160
Description: as §3
(§4) To define sites on gp120/gp41 reacting with ATA, the inhibitory effect of this compound was studied by RIA tests using gp120- and gp160-coated wells, respectively, and antisera (final dilutions 1:150) against synthetic peptides from the entire sequence of gp120/gp41 of HIV-1 BH 10. The preparation and biological properties of these antisera were described elsewhere (Neurath et al., (1990), J. Gen. Virol., 71, 85-95). Each of the antisera was diluted in a mixture of fetal bovine serum and goat serum (9:1) containing 0.1% Tween 20, adjusted to pH 8. ATA (final concentration 50 μg/ml) was added in one set of assays, but was omitted from a parallel set. After incubation overnight at 25° C., the plates were washed with TS. Attached rabbit IgG was detected using ^125 I-labeled anti-rabbit IgG, as described before (Neurath et al., 1990, J. Gen. Virol., 71, 85-95). Similarly, the inhibitory effect of ATA on the reaction of peptides derived from gp120/gp41 and of peptides derived from V3 hypervariable loops from gp120 of distinct HIV-1 isolates with the respective homologous anti-peptide antisera was studied. In the latter case, antisera were diluted 1:1,000 for the assays.
(§5) ATA was also added to a control peptide, (518-542), and to wells coated with gelatin only. After incubation for 4 hours at 20° C., excess ATA was removed, the wells were washed with TS and attached ATA was determined by double-antibody RIA using serial dilutions of the anti-ATA antiserum. […]

[7] = molecular target: T6, HIV-1 JY-1 V3 hypervariable loop peptide (Human immunodeficiency virus type 1 lw12.3 isolate, UniProt Q70626); test: as above; assay type: binding
T6 construct: cut from Env gp160
Description: as §3, §4, §5

CD4 receptor = details: literature; listed as ATA; cited from earlier work

T5 sequence (P05878 296-330): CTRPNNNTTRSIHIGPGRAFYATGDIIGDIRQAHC
T6 sequence (Q70626 296-331): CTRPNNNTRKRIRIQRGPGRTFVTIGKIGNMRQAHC

SMILES: O=C(O)C1=CC(=C(c2ccc(O)c(C(=O)O)c2)c2ccc(O)c(C(=O)O)c2)C=CC1=O [substance #122, aurintricarboxylic acid]
- inhibition of HIV-1 replication / antiviral activity (HIV-1 [1]): inhibited the replication of HIV-1 in vitro; also recorded: inhibit the cytopathogenicity and replication of the human immunodeficiency virus type 1
- inhibition of the reaction of gp120 on infected cells with monoclonal anti-gp120 antibodies [2]: inhibit the reaction of gp120 expressed on the surface of HIV-1-infected cells with monoclonal anti-gp120 antibodies
- binding of ATA to control peptide (anti-ATA antibodies) [3]: not with gelatin or a control peptide (518-542)
- ATA binding to V3 peptide (BH 10 peptide): bound the highest levels of ATA
- binding of ATA to gp120 (anti-ATA antibodies) (gp120): reacted with gp120; also recorded: remained bound to gp120 after removal of the excess of the compound
- binding of ATA to peptide (anti-ATA antibodies) [4]: most efficient binder of ATA
- binding of ATA to peptide (anti-ATA antibodies) (peptide (492-518)): bound to the peptide (492-518)
- viral DNA in treated cultures (HIV-1 [5]): almost undetectable
- reactivity of ATA with V3 hypervariable loop peptide ([6]; FIG. 4): minimal
- ATA binding to V3 peptide ([6]; FIG. 4B): bound very little ATA
- reactivity of ATA with V3 hypervariable loop peptide [7]: minimal
- inhibition of the interaction with CD4 receptor (CD4 receptor): inhibited the interaction of the CD4 receptor for HIV-1; also recorded: inhibiting the interaction between HIV-1 virions and cellular CD4 receptors
